Test results from US20080014218A1, “USE OF TIGHT JUNCTION AGONISTS TO […] DELIVERY OF THERAPEUTIC AGENTS” (ALBA THERAPEUTICS CORP., priority 2006, published 2008).
Where no end group is shown, it is not given here.

Details: rats, lung instillation, 10 μg salmon calcitonin + 1 mg FCIGRL vs 10 μg salmon calcitonin alone
Method: An aqueous saline solution containing 10 μg of salmon calcitonin was instilled into the lungs of rats and serum calcitonin levels were measured by ELISA. An aqueous saline solution containing 10 μg of salmon calcitonin and 1 mg of the tight junction agonist peptide FCIGRL was instilled into the lungs of rats and serum calcitonin levels were measured by ELISA.

FCIGRL [FCIGRL]
increase in area under the curve (AUC) of serum calcitonin: approximately 10.6 fold | increase in observed peak serum calcitonin levels: approximately three-fold
